The nature of the data set: pharmacokinetic data of tapentadol formulation (blood plasma concentrations). Format: in vivo, patients/test subjects. The settings on record: human, formulation containing tapentadol; for AUC(0-inf): read-out: AUC0-∞ (total area under the curve); for half-life: read-out: t1/2 (half-life) (converted). An excerpt: For the purposes of the description, the pharmacokinetic parameters, which may be determined from the blood plasma concentrations of the pharmacologically active compound (A), are defined as follows: […]
The above parameters are in each case stated as mean values of the individual values for all investigated patients/test subjects.
In a particularly preferred embodiment the pharmacologically active compound (A) is tapentadol or a physiologically acceptable salt thereof and the pharmaceutical dosage form according to the invention is bioequivalent to a formulation that contains tapentadol or a physiologically acceptable salt thereof in a dosage of 200 mg and 250 mg, respectively, and is characterized by the following pharmacokinetic data: […]

Where two headings read alike, the source gives them in different places.

The Cmax is the maximum level reached in the sampled fluid or tissue. A word on the Tmax: it is the time from dosing to the highest level.

On to `CC[C@@H](c1cccc(O)c1)[C@@H](C)CN(C)C` [tapentadol], for which, where the note is “dosage 200 mg”, the concentration peaked (Cmax) at 62.5 ng/mL, the Tmax is 5 h, the AUC(0-inf) amounted to 825 ng·h/mL and the half-life is 312 min. Besides, where the note is “dosage 250 mg”, the highest concentration (Cmax) amounted to 89.3 ng/mL, the Tmax is 5 h, the AUC(0-inf) was determined as 1100 ng·h/mL and the half-life was 324 min.
